Key:
[1] = tested on: VERO and MA cells; assay: Cell viability by MTT assay, non-tumoral cells; format: cell-based; conditions: 24 hours
Experimental: FIG. 6: VERO and MA cells of non tumoral origin were incubated with increasing concentrations of: a)-( ? ) Ptx in DMSO, b)-( ? ) micelles of Ptx-GM1 1/25, c)-( ? ) micelles of GM1 and d)-( ? ) micelles of the albumine-Ptx-GM1 complex. Cellular viability was evaluated using MTT assay marker after 24 hs incubation.
(§1) Different cell types, tumoral such as HEP-2 and Hela, and non-tumoral as VERO and MA were incubated in MEM medium containing 2% fetal bovine serum (Natocor-Villa Carlos Paz—Córdoba—Argentina) in a CO2 incubator with 5% CO2, to confluence. Different concentrations of the compositions mentioned below were added to the cell culture: […]
(§2) a)—Ptx in DMSO as positive control b)—Ptx-GM1 micelles 1/25 molar ratio c)—GM1 micelles in equal concentrations as in b), to control the effect of the GM1 itself, and d)—micelles of the albumin-Ptx-GM1 complex
(§3) Cell viability was evaluated by MTT assay after 24 hours of incubation.

[2] = tested on: HEP-2 and Hela cells; assay: Cell viability by MTT assay, tumoral cells; format: cell-based; conditions: 24 hours
Experimental: FIG. 7: HEP-2 and HELA cells of tumor origin were incubated with increasing concentrations of: a)-( ? ) Ptx in DMSO, b)-( ? ) Ptx-GM1 micelles 1/25, c)-( ? ) GM1 micelles and d)-( ? ) micelles of the GM1-Ptx-albumine complex. Cellular viability was evaluated using MTT assay after 24 hs incubation.
as §1, §2, §3

For CC(=O)O[C@H]1C(=O)[C@@]2(C)[C@H]([C@H](OC(=O)c3ccccc3)[C@]3(O)C[C@H](OC(=O)[C@H](O)[C@@H](NC(=O)c4ccccc4)c4ccccc4)C(C)=C1C3(C)C)[C@]1(OC(C)=O)CO[C@@H]1C[C@@H]2O [Ptx, paclitaxel], the “concentration producing complete death” value [1] was 100 ng/mL and the “concentration producing complete death” value [2] was 10 ng/mL.
